Values of other authors as cited in patent publication US20240365792A1, “Pest Control Formulations and Uses Thereof” (priority 2021, published 2024).

Columns and labels:
[1] = direct application to the skin
[2] = biological target: acetylcholinesterase (Homo sapiens, UniProt P22303); settings: in humans
[3] = tested on: salamander larvae; settings: in vivo
[4] = tested on: insects; settings: compared with DEET

Chain of acetylcholinesterase (P22303 32-614): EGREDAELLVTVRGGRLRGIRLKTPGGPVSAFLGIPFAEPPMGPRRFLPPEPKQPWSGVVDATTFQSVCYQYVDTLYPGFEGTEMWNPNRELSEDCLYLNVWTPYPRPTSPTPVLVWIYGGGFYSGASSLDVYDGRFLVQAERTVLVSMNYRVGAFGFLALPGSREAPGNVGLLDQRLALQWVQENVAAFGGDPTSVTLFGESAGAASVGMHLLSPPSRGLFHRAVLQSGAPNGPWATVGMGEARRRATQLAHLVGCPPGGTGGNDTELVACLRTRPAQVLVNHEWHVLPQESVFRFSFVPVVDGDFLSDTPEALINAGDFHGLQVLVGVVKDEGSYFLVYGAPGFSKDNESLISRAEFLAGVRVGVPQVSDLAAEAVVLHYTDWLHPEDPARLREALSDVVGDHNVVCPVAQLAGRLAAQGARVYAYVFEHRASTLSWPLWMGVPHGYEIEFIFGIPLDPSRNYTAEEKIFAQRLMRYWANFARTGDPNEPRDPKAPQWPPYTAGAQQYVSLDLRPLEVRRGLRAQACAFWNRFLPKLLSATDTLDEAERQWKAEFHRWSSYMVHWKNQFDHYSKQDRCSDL

SMILES	irritancy [1]	inhibition of acetylcholinesterase [2]	toxicity to salamander larvae [3]	effectiveness at repelling insects [4]
CCN(CC)C(=O)c1cccc(C)c1 [DEET, N,N-diethyl-3-methylbenzamide]	act as an irritant	inhibit acetylcholinesterase		
CCC(C)OC(=O)N1CCCCC1CCO (centres unmarked) [icaridin]	less irritating than DEET		toxic to salamander larvae	as effective as DEET
